Common to all, as to assay: Minimum inhibitory concentration (MIC)
What all share (assay type): cell-based

Test [1] relates to Staphylococcus aureus Smith. The settings on record: read-out: Minimum inhibitory concentrations (MIC). The text has this: (§1) The cephem compounds (I) of this invention and the salts or ester thereof are all novel compounds which are useful as antibacterial agent. To illustrate the utility of the new compound of this invention, we have determined and show below the minimum inhibitory concentrations of some representative examples of the new cephem compounds of this invention against growth of various bacteria in Table 1.

For test [2], the system named is Serratia marcescens No. 1. The settings on record: read-out: Minimum inhibitory concentrations (MIC).
From the text: as §1

In test [3] the test system is Escherichia coli NIHJ JC-2. The settings on record: NIHJJC2, read-out: Minimum inhibitory concentrations (MIC).
From the text: as §1

Test [4] has as its system Pseudomonas cepacia M-0527. The conditions noted are these: Burkholderia cepacia, M0527, read-out: Minimum inhibitory concentrations (MIC).
From the text: as §1

Test [5] deals with Salmonella typhimurium LT-2. The settings on record: Salmonella enterica, read-out: Minimum inhibitory concentrations (MIC).
From the text: as §1

In the next test the test system is Proteus vulgaris GN-76. The conditions noted are these: GN76, read-out: Minimum inhibitory concentrations (MIC).
From the text: as §1

Test [6] deals with Klebsiella pneumoniae PCI-602. The conditions noted are these: PCI602, read-out: Minimum inhibitory concentrations (MIC).
From the text: as §1

The subject of another test is Proteus rettgeri GN-624. The conditions noted are these: Providencia rettgeri, GN624, read-out: Minimum inhibitory concentrations (MIC).
From the text: as §1

A further test concerns Proteus mirabilis GN-79. The conditions noted are these: GN79, read-out: Minimum inhibitory concentrations (MIC).
From the text: as §1

For test [7], the system named is Staphylococcus aureus 209P JC-1. The conditions noted are these: read-out: Minimum inhibitory concentrations (MIC).
From the text: as §1

Values after ≈ are worked out from the molar mass of the structure shown.

For the molecule `CO/N=C(\C(=O)NC1C(=O)N2C(C(=O)O)=C(/C=C\C(F)(F)F)CSC12)c1csc(N)n1` (stereo not drawn) [Compound (A), 7-[2-methoxyimino-2-(2-aminothiazol-4-yl)acetamido]-3-(3,3,3-trifluoropropenyl)-3-cephem-4-carboxylic acid (syn-isomer, cis-isomer)], the MIC in test [1] came to 0.39 µg/mL (≈ 0.817 µM); in test [2], 0.2 µg/mL (≈ 0.419 µM); in [3] it was 0.78 µg/mL (≈ 1.63 µM); in test [4], 6.25 µg/mL (≈ 13.1 µM); in [5], 0.39 µg/mL (≈ 0.817 µM); in the test on Proteus vulgaris GN-76, 0.2 µg/mL (≈ 0.419 µM). The MIC in [6] is 0.39 µg/mL (≈ 0.817 µM); in the test with Proteus rettgeri GN-624, 3.13 µg/mL (≈ 6.56 µM); in the test on Proteus mirabilis GN-79 it was 0.39 µg/mL (≈ 0.817 µM); in test [7], 0.2 µg/mL (≈ 0.419 µM).

In the case of `CO/N=C(\C(=O)NC1C(=O)N2C(C(=O)O)=C(/C=C/C(F)(F)F)CSC12)c1csc(N)n1` (stereo not drawn) [Compound (B), 7-[2-methoxyimino-2-(2-aminothiazol-4-yl)acetamido]-3-(3,3,3-trifluoropropenyl)-3-cephem-4-carboxylic acid (syn-isomer, trans-isomer)], the MIC in [1] amounted to 0.78 µg/mL (≈ 1.63 µM); in [2], 0.39 µg/mL (≈ 0.817 µM); in test [3], 0.39 µg/mL (≈ 0.817 µM); in test [4], 6.25 µg/mL (≈ 13.1 µM); in test [5], 0.2 µg/mL (≈ 0.419 µM); with Proteus vulgaris GN-76, 0.2 µg/mL (≈ 0.419 µM). In addition, the MIC in test [6] came to 0.39 µg/mL (≈ 0.817 µM); with Proteus rettgeri GN-624, 1.56 µg/mL (≈ 3.27 µM); with Proteus mirabilis GN-79, 0.39 µg/mL (≈ 0.817 µM); in test [7], 0.39 µg/mL (≈ 0.817 µM).

The record behind these values is patent publication US4687769A, “3-(3,3,3-trifluoropropenyl) cephalosporins” (Meiji Seika Kaisha, Ltd., priority 1984, dated 1987).
